One experiment concerns the target Cytochrome P450 2C19 (Homo sapiens, UniProt P33261). Briefly: (§1) Inhibition of Cytochrome P450 Oxidase: The human liver microsomes (0.253 mg/mL protein) containing cytochrome P450, test compounds (0.05-50 μM), CYPs substrates (10 μM […], 5 μM diclofenac, 30 μM mephenytoin, 5 μM dextromethorphan hydrobromide, 2 μM midazolam), 1.0 mM NADP were incubated at 37° C. for 10 minutes. Naflavone, sulfafenpyrazole, N-3-benzylnivan, quinidine, and ketoconazole were used as reference inhibitors.

The target in the next experiment is Cytochrome P450 3A4 (Homo sapiens, UniProt P08684). The experiment is described as §1.
Chain of Cytochrome P450 3A4 (P08684 whole entry): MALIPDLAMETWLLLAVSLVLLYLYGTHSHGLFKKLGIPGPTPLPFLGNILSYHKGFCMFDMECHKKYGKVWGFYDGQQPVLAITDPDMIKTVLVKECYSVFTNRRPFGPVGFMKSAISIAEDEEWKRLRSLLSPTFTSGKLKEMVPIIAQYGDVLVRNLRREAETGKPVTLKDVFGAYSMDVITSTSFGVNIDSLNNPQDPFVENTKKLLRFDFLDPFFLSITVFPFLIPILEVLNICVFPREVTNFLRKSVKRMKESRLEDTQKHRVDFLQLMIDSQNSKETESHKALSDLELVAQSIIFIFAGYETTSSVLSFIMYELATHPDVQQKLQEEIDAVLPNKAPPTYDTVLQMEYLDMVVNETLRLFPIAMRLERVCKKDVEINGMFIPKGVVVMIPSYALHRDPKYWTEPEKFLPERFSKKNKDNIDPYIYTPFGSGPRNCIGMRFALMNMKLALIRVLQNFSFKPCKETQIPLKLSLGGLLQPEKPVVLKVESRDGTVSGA
The next experiment addresses Cytochrome P450 2D6 (Homo sapiens, UniProt P10635). The experiment is described as §1.
A further experiment concerns the target T1, Cytochrome P450 1A2 (Homo sapiens, UniProt P05177).
T1 sequence (P05177 whole entry): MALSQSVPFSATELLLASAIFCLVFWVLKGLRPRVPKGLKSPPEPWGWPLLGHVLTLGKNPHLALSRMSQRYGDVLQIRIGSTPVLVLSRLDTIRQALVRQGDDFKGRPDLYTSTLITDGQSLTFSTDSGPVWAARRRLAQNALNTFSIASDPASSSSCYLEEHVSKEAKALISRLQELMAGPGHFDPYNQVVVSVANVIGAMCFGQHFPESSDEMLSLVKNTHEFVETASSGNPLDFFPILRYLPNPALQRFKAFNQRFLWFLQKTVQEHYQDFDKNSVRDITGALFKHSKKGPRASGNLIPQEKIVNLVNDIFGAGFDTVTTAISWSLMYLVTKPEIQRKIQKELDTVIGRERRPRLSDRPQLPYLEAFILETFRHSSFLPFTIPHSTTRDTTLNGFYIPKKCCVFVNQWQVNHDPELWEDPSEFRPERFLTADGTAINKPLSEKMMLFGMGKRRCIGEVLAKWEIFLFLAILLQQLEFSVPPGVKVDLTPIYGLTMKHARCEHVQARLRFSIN
The description is as §1.

Another experiment concerns the target Cytochrome P450 2C9 (Homo sapiens, UniProt P11712). Described as §1.
Experiment [1] concerns the target Kappa-type opioid receptor (Homo sapiens, UniProt P41145). The experiment is described as follows: Agonistic activity of the kappa-opioid receptors: Forskolin can stimulate the release of cAMP from HEK293 cells with high expression of human κ (or μ, or δ)-opioid receptors. […] The efficacy of the compounds of the invention as κ-opioid receptor agonists was determined by measuring the ability of the compounds of Examples to inhibit adenylate cyclase activity.Cell culture: The HEK293 cell line highly expressing human κ (or μ, or δ)-opioid receptor were cultured in DMEM medium containing 10% FBS.Stimulation: the test compound was 4-fold diluted in a gradient manner to obtain 10 concentrations, and 50 nl of each was transferred to a 384-well plate, and then 10 nl Forskolin was added; the cells were digested, re-suspended, and counted; and then 10 μl of cell suspension (5×10^5 cell/mL) was added, and the cells were mixed gently, and incubated at 23° C. for 60 minutes.Detection: cAMP Assay Kit (Cisbio) was used, cAMPD2 and Anti-cAMP conjugate were added, and the resultant mixture was incubated for 1 h at room temperature. The plate was read using envision (Perkin Elmer) and EC50 was obtained by means of fitting with a four-parameter equation. The class given is cell-based.

Chain of Cytochrome P450 2D6 (P10635 whole entry): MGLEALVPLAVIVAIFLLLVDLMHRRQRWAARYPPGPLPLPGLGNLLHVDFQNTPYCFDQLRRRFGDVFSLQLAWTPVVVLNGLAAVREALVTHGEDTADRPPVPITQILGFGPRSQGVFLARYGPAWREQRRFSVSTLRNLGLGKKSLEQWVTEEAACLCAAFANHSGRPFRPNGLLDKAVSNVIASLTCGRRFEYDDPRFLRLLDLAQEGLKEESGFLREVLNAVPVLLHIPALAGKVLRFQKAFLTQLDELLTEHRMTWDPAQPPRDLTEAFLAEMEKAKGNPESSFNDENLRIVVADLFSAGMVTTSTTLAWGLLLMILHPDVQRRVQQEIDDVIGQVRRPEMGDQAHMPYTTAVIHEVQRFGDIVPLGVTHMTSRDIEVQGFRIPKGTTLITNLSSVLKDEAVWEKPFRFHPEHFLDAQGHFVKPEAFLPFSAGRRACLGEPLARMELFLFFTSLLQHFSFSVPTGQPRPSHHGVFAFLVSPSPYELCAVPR
Chain of Cytochrome P450 2C19 (P33261 whole entry): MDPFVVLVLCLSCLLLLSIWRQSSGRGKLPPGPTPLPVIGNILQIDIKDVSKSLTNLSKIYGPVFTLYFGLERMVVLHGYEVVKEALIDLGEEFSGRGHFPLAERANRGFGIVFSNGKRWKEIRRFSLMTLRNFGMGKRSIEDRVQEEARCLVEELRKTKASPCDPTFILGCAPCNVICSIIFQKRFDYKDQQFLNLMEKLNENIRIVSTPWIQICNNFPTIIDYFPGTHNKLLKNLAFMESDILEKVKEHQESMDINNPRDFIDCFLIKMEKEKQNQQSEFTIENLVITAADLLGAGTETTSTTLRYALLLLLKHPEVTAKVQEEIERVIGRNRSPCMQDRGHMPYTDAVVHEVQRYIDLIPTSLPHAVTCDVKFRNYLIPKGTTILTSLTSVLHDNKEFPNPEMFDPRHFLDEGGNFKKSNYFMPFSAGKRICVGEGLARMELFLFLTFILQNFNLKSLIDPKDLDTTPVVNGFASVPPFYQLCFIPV
Chain of Cytochrome P450 2C9 (P11712 whole entry): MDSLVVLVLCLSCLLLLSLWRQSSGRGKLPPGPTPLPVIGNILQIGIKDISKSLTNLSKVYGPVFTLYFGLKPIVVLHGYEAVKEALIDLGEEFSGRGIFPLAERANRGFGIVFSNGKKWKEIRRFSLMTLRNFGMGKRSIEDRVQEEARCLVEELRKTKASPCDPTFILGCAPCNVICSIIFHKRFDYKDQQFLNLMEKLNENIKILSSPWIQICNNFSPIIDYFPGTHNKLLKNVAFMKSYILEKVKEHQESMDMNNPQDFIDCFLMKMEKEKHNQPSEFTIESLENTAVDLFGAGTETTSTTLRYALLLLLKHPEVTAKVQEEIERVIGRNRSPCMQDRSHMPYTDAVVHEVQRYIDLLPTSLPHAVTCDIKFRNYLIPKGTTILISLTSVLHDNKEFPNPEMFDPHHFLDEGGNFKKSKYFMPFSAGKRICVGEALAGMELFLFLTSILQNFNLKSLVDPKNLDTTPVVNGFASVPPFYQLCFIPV
Chain of Kappa-type opioid receptor (P41145 whole entry): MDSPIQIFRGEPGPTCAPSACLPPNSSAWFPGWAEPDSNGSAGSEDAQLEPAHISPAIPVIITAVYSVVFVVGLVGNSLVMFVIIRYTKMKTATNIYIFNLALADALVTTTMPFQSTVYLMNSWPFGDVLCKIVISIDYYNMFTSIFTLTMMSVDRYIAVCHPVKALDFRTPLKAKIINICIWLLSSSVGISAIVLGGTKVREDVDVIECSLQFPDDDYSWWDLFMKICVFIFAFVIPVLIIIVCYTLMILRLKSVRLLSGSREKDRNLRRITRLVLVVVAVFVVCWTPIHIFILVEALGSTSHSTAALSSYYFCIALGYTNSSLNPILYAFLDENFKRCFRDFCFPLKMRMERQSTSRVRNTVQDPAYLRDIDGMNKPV

Regarding `CC(C)C[C@@H](NC(=O)[C@@H](Cc1ccccc1)NC(=O)[C@H](N)Cc1ccccc1)C(=O)N[C@H](CCCCN)C(=O)N1CC[C@@H](B(O)O)C1`, the IC50 on Cytochrome P450 2C19, on Cytochrome P450 3A4, at Cytochrome P450 2D6, on Cytochrome P450 1A2 and on Cytochrome P450 2C9 was above 50 µM each time.
With `CC(C)C[C@@H](NC(=O)[C@@H](Cc1ccccc1)NC(=O)[C@H](N)Cc1ccccc1)C(=O)N[C@H](CCCCN)C(=O)N1CC=C(B(O)O)C1`, the 50% inhibitory concentration (IC50) at Cytochrome P450 2C19, at Cytochrome P450 3A4, at Cytochrome P450 2D6, on Cytochrome P450 1A2 and at Cytochrome P450 2C9 was above 50 µM throughout.
Regarding `CC(C)C[C@@H](NC(=O)[C@@H](Cc1ccccc1)NC(=O)[C@H](N)Cc1ccccc1)C(=O)N[C@H](CCCCN)C(=O)N1CCC[C@H]1B(O)O`, the EC50 in experiment [1] turned out to be 1 pM. Moreover, the IC50 at Cytochrome P450 2C19, at Cytochrome P450 3A4, at Cytochrome P450 2D6, on Cytochrome P450 1A2 and at Cytochrome P450 2C9 was above 50 µM each time.
In the case of `CC(C)C[C@@H](NC(=O)[C@@H](Cc1ccccc1)NC(=O)[C@H](N)Cc1ccccc1)C(=O)N[C@H](CCCCN)C(=O)N1CCC(N)(B(O)O)CC1`, the IC50 at Cytochrome P450 2C19, at Cytochrome P450 3A4, on Cytochrome P450 2D6, at Cytochrome P450 1A2 and at Cytochrome P450 2C9 was above 50 µM in each case.

Source of the values: ChEMBL document CHEMBL5729699, “Polypeptide compound, pharmaceutical composition, preparation method and application thereof” (2023).
